Results from PubChem BioAssay (NCI).
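How tested: cells in 96-well plates exposed to compound for 48 hours at five concentrations. GI50 = concentration required for 50% inhibition of growth. TGI: concentration producing complete growth inhibition.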

What was measured:
Experiment in all cases: NCI-60 cell line screen, 48 h
[1] = test system: HS 578T breast
[2] = test system: UACC-257 melanoma
[3] = test system: M14 melanoma
[4] = test system: HL-60(TB) leukemia
[5] = test system: UACC-62 melanoma
[6] = test system: T-47D breast
[7] = test system: SF-295 CNS
[8] = test system: HCC-2998 colon
[9] = test system: A498 renal
[10] = test system: DU-145 prostate
[11] = test system: SN12C renal
[12] = test system: EKVX NSCLC
[13] = test system: UO-31 renal
[14] = test system: SK-MEL-5 melanoma
[15] = test system: NCI-H522 lung
[16] = test system: K-562 leukemia
[17] = test system: 786-0 renal
[18] = test system: CCRF-CEM leukemia
[19] = test system: HCT-116 colon
[20] = test system: MOLT-4 leukemia
[21] = test system: MALME-3M melanoma
[22] = test system: CAKI-1 renal
[23] = test system: COLO 205 colon
[24] = test system: MCF7 breast
[25] = test system: LOX IMVI melanoma
[26] = test system: MDA-MB-231 breast
[27] = test system: OVCAR-5 ovarian
[28] = test system: BT-549 breast
[29] = test system: SR leukemia

`COc1ccc2c(c1)C(=O)c1c-2n(CCCNCCO)c(=O)c2ccccc12` was tested, and the GI50 [1] was 262 nM, the TGI [1] was 2240 nM and the GI50 [2] was 541 nM. The TGI [2] was 2130 nM, the GI50 [3] was 320 nM and the TGI [3] was 1480 nM. The GI50 [4] was 169 nM, the TGI [4] was 1690 nM and the GI50 [5] was 312 nM. It also gave a TGI [5] of 1850 nM, a GI50 [6] of 56 nM and a TGI [6] of 1620 nM. The GI50 [7] was 61.7 nM, the TGI [7] was 425 nM and the GI50 [8] was 109 nM. For the same compound, the TGI [8] was 479 nM, the GI50 [9] was 80.7 nM and the TGI [9] was 520 nM. The GI50 [10] was 46.9 nM, the TGI [10] was 331 nM and the GI50 [11] was 118 nM. It also gave a TGI [11] of 1420 nM, a GI50 [12] of 349 nM and a TGI [12] of 1500 nM. It also gave a GI50 [13] of 90.4 nM, a TGI [13] of 618 nM and a GI50 [14] of 63.4 nM. The TGI [14] was 202 nM, the GI50 [15] was 17.4 nM and the TGI [15] was 95.5 nM. The GI50 [16] was 121 nM, the GI50 [17] was 67.8 nM and the TGI [17] was 568 nM. The GI50 [18] was 22.7 nM, the TGI [18] was 1050 nM and the GI50 [19] was 79.9 nM. The TGI [19] was 534 nM, the GI50 [20] was under 18.2 nM and the TGI [20] was 5280 nM. It also gave a GI50 [21] of 178 nM, a TGI [21] of 1240 nM and a GI50 [22] of 107 nM. For the same compound, the TGI [22] was 659 nM, the GI50 [23] was 74.6 nM and the TGI [23] was 1650 nM. For the same compound, the GI50 [24] was under 11.5 nM, the TGI [24] was 434 nM and the GI50 [25] was 47.3 nM. The TGI [25] was 224 nM, the GI50 [26] was 543 nM and the TGI [26] was 2330 nM. For the same compound, the GI50 [27] was 346 nM, the TGI [27] was 1110 nM and the GI50 [28] was 127 nM. For the same compound, the TGI [28] was 672 nM, the GI50 [29] was under 20.7 nM and the TGI [29] was 1800 nM.
